Experiments:
human TLR7 = biological target: T1, human TLR7 (Homo sapiens, UniProt Q9NYK1); experiment: HEK Reporter Assay, HEK293 NFKB reporter cells expressing human TLR7; format: cell-based; conditions: read-out: HEK293 hTLR7 EC50
T1 construct: host or cells: HEK293 NF-kB reporter cells
T1 sequence (Q9NYK1 27-1049): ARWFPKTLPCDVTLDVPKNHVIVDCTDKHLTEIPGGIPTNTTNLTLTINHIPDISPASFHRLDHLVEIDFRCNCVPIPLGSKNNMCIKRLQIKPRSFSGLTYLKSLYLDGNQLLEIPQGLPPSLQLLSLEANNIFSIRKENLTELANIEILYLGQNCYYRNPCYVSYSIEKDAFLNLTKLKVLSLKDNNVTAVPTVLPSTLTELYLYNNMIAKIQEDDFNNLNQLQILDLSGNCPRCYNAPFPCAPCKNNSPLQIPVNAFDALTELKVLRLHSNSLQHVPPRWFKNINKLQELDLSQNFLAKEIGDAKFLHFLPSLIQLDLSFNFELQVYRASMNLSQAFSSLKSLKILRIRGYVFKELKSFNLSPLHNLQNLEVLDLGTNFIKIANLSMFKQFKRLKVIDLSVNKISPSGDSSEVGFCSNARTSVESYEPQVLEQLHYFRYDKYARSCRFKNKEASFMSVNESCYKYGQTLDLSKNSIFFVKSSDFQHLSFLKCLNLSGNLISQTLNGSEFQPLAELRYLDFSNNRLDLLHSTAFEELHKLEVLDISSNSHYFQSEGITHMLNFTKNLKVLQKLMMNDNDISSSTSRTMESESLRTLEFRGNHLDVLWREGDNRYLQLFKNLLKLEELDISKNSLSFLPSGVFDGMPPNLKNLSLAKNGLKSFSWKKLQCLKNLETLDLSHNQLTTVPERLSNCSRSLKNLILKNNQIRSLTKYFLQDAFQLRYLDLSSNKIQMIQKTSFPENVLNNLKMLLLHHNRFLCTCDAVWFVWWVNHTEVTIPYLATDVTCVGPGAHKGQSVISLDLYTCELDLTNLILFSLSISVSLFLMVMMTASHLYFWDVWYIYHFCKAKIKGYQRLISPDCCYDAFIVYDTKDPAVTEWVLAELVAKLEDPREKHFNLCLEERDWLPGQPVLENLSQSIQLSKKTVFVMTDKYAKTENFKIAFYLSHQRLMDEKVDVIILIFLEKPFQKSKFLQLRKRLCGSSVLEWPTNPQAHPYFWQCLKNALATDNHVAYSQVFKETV
Description: (§1) Each compound was synthesized, purified, and characterized by mass spectrometry and shown to have the mass indicated. Additional experimental procedures are found in the Examples. Activity against Human Embryonic Kidney (HEK) 293 NFKB reporter cells expressing human TLR7 or human TLR8 was measured according to Example 202.
(§2) Human Embryonic Kidney (HEK293) reporter cells expressing human TLR7 or human TLR8 (InvivoGen, San Diego Calif.), were used with vendor protocols for cellular propagation and experimentation. Briefly, cells were grown to 80-85% confluence at 5% CO2 in DMEM supplemented with 10% FBS, ZEOCIN™, and Blasticidin. Cells were then seeded in 96-well flat plates at 4×10^4 cells/well with substrate containing HEK detection medium and immunostimulatory molecules.

human TLR8 = biological target: T2, human TLR8 (Homo sapiens, UniProt Q9NR97); experiment: HEK Reporter Assay, HEK293 NFKB reporter cells expressing human TLR8; format: cell-based; conditions: read-out: HEK293 hTLR8 EC50
T2 construct: host or cells: HEK293 NF-kB reporter cells
T2 sequence (Q9NR97 27-1041): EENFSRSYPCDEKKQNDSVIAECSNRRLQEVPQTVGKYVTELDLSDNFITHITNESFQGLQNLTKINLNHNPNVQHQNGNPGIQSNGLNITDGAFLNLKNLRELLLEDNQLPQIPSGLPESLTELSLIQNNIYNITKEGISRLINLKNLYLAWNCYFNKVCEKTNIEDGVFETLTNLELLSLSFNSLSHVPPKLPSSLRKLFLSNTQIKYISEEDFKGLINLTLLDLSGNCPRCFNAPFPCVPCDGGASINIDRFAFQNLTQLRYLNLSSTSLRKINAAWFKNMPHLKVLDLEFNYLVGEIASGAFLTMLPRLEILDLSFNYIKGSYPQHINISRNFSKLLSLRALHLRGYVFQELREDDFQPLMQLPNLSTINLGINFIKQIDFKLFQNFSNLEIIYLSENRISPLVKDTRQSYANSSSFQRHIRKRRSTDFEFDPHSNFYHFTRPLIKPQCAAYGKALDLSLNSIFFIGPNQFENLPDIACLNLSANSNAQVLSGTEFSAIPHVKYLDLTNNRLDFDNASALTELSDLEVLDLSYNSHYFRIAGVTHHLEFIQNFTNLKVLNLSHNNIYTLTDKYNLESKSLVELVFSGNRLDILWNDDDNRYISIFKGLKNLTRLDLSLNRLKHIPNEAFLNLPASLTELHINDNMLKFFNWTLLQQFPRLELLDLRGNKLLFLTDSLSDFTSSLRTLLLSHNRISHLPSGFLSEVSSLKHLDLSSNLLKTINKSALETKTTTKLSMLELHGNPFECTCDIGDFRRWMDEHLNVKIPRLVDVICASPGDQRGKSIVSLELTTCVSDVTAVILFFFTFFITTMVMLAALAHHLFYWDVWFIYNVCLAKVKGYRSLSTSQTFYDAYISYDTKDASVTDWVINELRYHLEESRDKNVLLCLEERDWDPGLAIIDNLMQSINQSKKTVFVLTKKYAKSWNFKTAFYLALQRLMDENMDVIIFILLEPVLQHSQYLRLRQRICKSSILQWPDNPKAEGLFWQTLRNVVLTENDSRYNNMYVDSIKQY
Description: as §1, §2

| EC50 (human TLR7) [µM] | EC50 (human TLR8) [µM] | SMILES |
| --- | --- | --- |
| 0.684 | 0.174 | CCCN(OCCNC(=O)OC(C)C)C(=O)C1=Cc2ccc(-c3cncc(S(=O)(=O)N4CC(CN)C4)c3)cc2N=C(N)C1 [HxBz-35] |
| 0.439 | 0.054 | CCCN(OCC)C(=O)C1=Cc2ccc(-c3ccc(CN)nc3)cc2N=C(N)C1 [HxBz-36, 2-amino-8-[6-(aminomethyl)-3-pyridyl]-N-ethoxy-N-propyl-3H-1-benzazepine-4-carboxamide] |
| 0.056 | 0.153 | CCCN(CCCNC(=O)OC1CCC1)C(=O)C1=Cc2ccc(-c3ccc(CN)nc3)cc2N=C(N)C1 [HxBz-38] |
| 1.78 | 0.065 | CCCN(OCC)C(=O)C1=Cc2ccc(-c3cncc(CN)c3)cc2N=C(N)C1 [HxBz-39, 2-amino-8-(5-(aminomethyl)pyridin-3-yl)-N-ethoxy-N-propyl-3H-benzo[b]azepine-4-carboxamide] |
| 0.357 | 0.755 | CCCN(CCCNC(=O)OC1CCC1)C(=O)C1=Cc2ccc(-c3cncc(CN)c3)cc2N=C(N)C1 [HxBz-40] |
| 3.93 | 0.128 | CCCN(OCc1ccn[nH]1)C(=O)C1=Cc2ccc(-c3cnc(CN)nc3)cc2N=C(N)C1 [HxBz-41, 2-amino-8-[2-(aminomethyl)pyrimidin-5-yl]-N-propyl-N-(1H-pyrazol-5-ylmethoxy)-3H-1-benzazepine-4-carboxamide] |
| 0.825 | 0.325 | CCCN(CCCOC(=O)NC1CCC1)C(=O)C1=Cc2ccc(-c3cnc(CN)nc3)cc2N=C(N)C1 [HxBz-45, 3-[[2-amino-8-[2-(aminomethyl)pyrimidin-5-yl]-3H-1-benzazepine-4-carbonyl]-propyl-amino]propyl N-cyclobutylcarbamate] |
| 0.035 | 0.012 | CCCN(OCCNC(=O)OC1CCC1)C(=O)C1=Cc2ccc(-c3ccc(CN)nc3)cc2N=C(N)C1 [HxBz-47] |

Source: patent publication US20220195066A1, “ANTI-CEA IMMUNOCONJUGATES, AND USES THEREOF” (BOLT BIOTHERAPEUTICS, INC., priority 2020, published 2022)
